Source: a melting point compilation (Tetko et al.; mined from patent text by program, amines drawn as free bases though some values may be those of a salt)

Point of comparison: `O=C(c1ccc(Cl)cc1)c1ccc2[nH]c(=O)nc(-c3cccc(Cl)c3)c2c1`, melting point 256 °C. Against it:
- CC(C)(C)OC(=O)N[C@@H](Cc1c[nH]c2ccccc12)c1nc2c(C(F)(F)F)cccc2c(O)c1C(=O)Nc1nccs1 — higher, 270 °C
- CC(=O)Nc1ccc(-c2cc(=O)c(C(=O)O)cn2-c2ccc(F)cc2)cc1 — lower, 249 to 250 °C
- CCCCCCCCCC(O)CNCCCCCCNCC(O)CCCCCCCCC (stereo not drawn) — lower, 123 to 129 °C
- COc1ccc(N)cc1C(=O)O — lower, 163 to 166 °C
- CC(C)=CCCOc1c(-c2ccc(S(C)(=O)=O)cc2)cnn(-c2cccc(Cl)c2)c1=O — lower, 110 to 111 °C
- CC1=C(C(=O)N(C)Cc2ccc(Cl)cc2Cl)SC2=NCCN21 — lower, 55 to 60 °C
- CC(C)(S)C(=O)N[C@@H](CS)C(=O)O — lower, 139 to 140 °C
- Clc1ccc(CNc2cc(Cl)nc(Cl)n2)cc1 — lower, 120 to 122 °C
- CCCCCCCCCCCCCCCC1=CC=CC(=O)C12CO2 (stereo not drawn) — lower, 45 to 47 °C
- N#CC(Sc1ccc(Cl)cc1)=C1SCCN1c1ccccc1 — lower, 144 to 146 °C
- CCOC(=O)N1CC[C@H](N(Cc2ccccc2)Cc2ccccc2)[C@H](OC)C1 (relative stereo) — lower, 95.2 °C
- Cn1cc(-c2ccc3nnc(C(F)(F)c4ccc5nc(NC(=O)C6CC6)cn5n4)n3c2)cn1 — higher, 275 °C
- O=C1CCC(Cc2ccc(Br)cc2)=C1O — lower, 144 to 145 °C
- CC(C)(C)C1C(O)=C(C2=NS(=O)(=O)c3c(NS(C)(=O)=O)cccc32)C(=O)N1Cc1ccc(F)cc1 (stereo not drawn) — lower, 245 to 250 °C
- COc1ccc(S)c(Cl)c1Cl — lower, 81.5 to 83 °C
- CC(=O)c1cc(-c2ccncc2)sc1Oc1ccccc1F — lower, 93 to 96 °C
- CC(=O)OCC1OC(n2c(=O)sc3c(=O)[nH]c(N)nc32)C(OC(C)=O)C1OC(C)=O (stereo not drawn) — lower, 198 to 199 °C
- FC(F)(F)c1cccc(CSc2nnc(-c3ccnc4[nH]ccc34)o2)c1 — lower, 164 to 165 °C
- CCN(C(=O)NS(=O)(=O)c1ccccc1)c1ccc(Cl)cc1 — lower, 145 to 146 °C
- N#Cc1c(Cl)c(C(F)(F)F)n(CCl)c1-c1ccc(Cl)cc1 — lower, 107 to 108 °C
- COc1cc(C)c(C(=O)c2c(Cl)cccc2Cl)c(O)c1O — lower, 182 °C
- CCCCCCCCC#Cc1ccc2sc(C=O)cc2c1 — lower, 45 to 47 °C
- Brc1ccc(-c2cc(-c3ccc(Br)cc3)cc(-c3ccc(Br)cc3)c2)cc1 — lower, 254 to 255 °C
- COC(=O)CCC(=O)c1cccc(Cl)c1O — lower, 60 to 62 °C
- CNC(=O)c1cccc(NC(=O)Cc2c(O)ccc3ccccc23)c1 — lower, 229 to 230 °C
- COC(=O)c1c(-c2ccccc2Cl)c2cc(C)c(C)cc2[nH]c1=O — higher, 288 to 289 °C
- COc1ccc(N2CCN(C[C@@H](O)COc3cccc(-c4noc5ccsc45)c3)CC2)cc1 — lower, 110 to 113 °C
- CC#CCOc1ccc(S(=O)C(C(=O)NO)c2ccc(Cl)cc2)cc1 (stereo not drawn) — lower, 92 °C
- C#CCOc1nc(NN)c(C(F)(F)F)cc1Cl — lower, 98 to 102 °C
- O=Cc1cc2ccc3ccc4ccccc4c3c2o1 — lower, 169 °C
- O=C(c1ccc(-c2ccc(-c3ccc(-c4ccc(C(=O)c5c(F)c(F)c(F)c(F)c5F)s4)s3)s2)s1)c1c(F)c(F)c(F)c(F)c1F — higher, 291 to 294 °C
- CC(C)(C)OC(=O)CCCCCCCCCC[N+](=O)[O-] — lower, 39 to 42 °C
- CC(C)(C)c1ccc(-c2cc(=O)cc(N3CCOCC3)s2)cc1 — lower, 172 to 173 °C
- Fc1ccc(-c2[nH]cc(C3=CC4CCCCN4CC3)c2-c2ccncc2)cc1 (stereo not drawn) — lower, 223 to 224 °C
- CCON=C(C)c1ccc2c(c1)ncn2-c1cccc(-c2cccnc2)c1 — lower, 105 to 106 °C
- O=C(c1ccc(NS(=O)(=O)c2ccccc2)cc1)N1CCCCc2ccccc21 — lower, 178 to 182 °C
- O=C(Nc1cc(NC(=O)C2CCCCC2)cc(NC(=O)C2CCCCC2)c1)C1CCCCC1 — higher, 286 °C
- CCOC(=O)c1oc(-c2ccccc2)cc(=O)c1Cl — lower, 121 °C
- CC(C)(C)OC(=O)CN1CCN2C(=O)N(c3cc(Cl)cc(Cl)c3)C(=O)C2(Cc2ccc(Br)cc2)C1 (stereo not drawn) — lower, 74.7 °C
- CCCN1CCC(Cc2ccc3c(c2)c(Cc2ccc(C(=O)O)cc2OC)cn3CCC)C1=O (stereo not drawn) — lower, 75 to 86 °C
- CSc1ccc([N+](=O)[O-])cn1 — lower, 111 to 112 °C
- CS(=O)(=O)N[C@@H](CCCCNC(=O)OCc1ccccc1)C(=O)O — lower, 83.5 to 84 °C
- N#Cc1cnc2c(oc3ccccc32)c1Nc1ccc(Oc2ccccc2)cc1 — lower, 175 to 179 °C
- COC(=O)C(C)c1ccc2cc(OC(=O)COCc3ccccc3)ccc2c1 (stereo not drawn) — lower, 58 to 60 °C
- O=C(O)c1cn([C@@H]2C[C@@H]2F)c2c(Cl)c(Cl)ccc2c1=O — lower, 198 to 201 °C
- CCOC(=O)CC(=O)c1cc(C(CC(C)C)NC(=O)Cc2ccc(NC(=O)Nc3ccccc3Cl)cc2)no1 (stereo not drawn) — lower, 150 to 152 °C
- CC(C)CCCOC1CCC2C3C(=O)C=C4CC(O)CCC4(C)C3CCC12C (stereo not drawn) — lower, 134 °C
- O=C1c2ccccc2C(=O)N1CCOCCOCCOCCOCCOCCN1C(=O)c2ccccc2C1=O — lower, 124 to 126 °C
- OCc1ccc2cc(OCc3ccccc3)ccc2c1 — lower, 130 to 132 °C
- O=C(CS(=O)(=O)C(c1ccc(Cl)cc1)c1ccc(Cl)cc1)c1cccs1 — lower, 150 to 151 °C
- O=C1[C@@H](CCCO)O[C@H](c2ccccc2)c2ccccc2N1Cc1ccccc1 (relative stereo) — lower, 59 to 62 °C
- CCOC(=O)N[C@@H](C(=O)O)c1ccccc1 — lower, 143 to 150 °C
- O=C(O)C(Oc1ccccc1)(C(F)(F)F)C(F)(F)F — lower, 6 to 8 °C
- Oc1ccc2nc(-c3ccc(O)c(Cl)c3)oc2c1 — not separable, 254 to 256 °C
- CCCCOCCOc1ccc(-c2ccc3c(c2)C=C(C(=O)Nc2ccc(/C(Cc4nccn4CCC)=N/OC)cc2)CCN3CC(C)C)cc1 — lower, 159 to 161 °C
- CN1CCC(O)(c2cccc(F)c2F)C1 (single isomer, unassigned; (-)) — lower, 131 to 132 °C
- COc1cc(N)c(Cl)cc1C(=O)NCC1CCN(CCCCCC(=O)c2ccc(Cl)cc2)CC1 — lower, 156 to 158 °C
- CCOC(=O)c1cc2cc(Br)ccc2s1 — lower, 94 to 95 °C
- COC(=O)C(C)(C)C(O)CCOc1cc(C)ccc1C (stereo not drawn) — lower, 40.5 to 41 °C
- CCc1ccc(-c2c(Cl)c(CN3C(=O)CCC3=O)nc3sc4c(c23)CCNC4)cc1 — lower, 157 to 158 °C
- CCCCCCCCCCCCCCCCCCOCC(COC(c1ccccc1)(c1ccccc1)c1ccccc1)OC(=O)N(C)C (stereo not drawn) — lower, 57.5 to 58 °C
- [N-]=[N+]=NC(=O)c1ccc(-c2ccc(C(F)(F)F)cc2)s1 — lower, 97 °C
- COc1ccc(C(Nc2ccccc2)C(=O)OC(C)(C)C)cc1 (racemic) — lower, 99 °C
- COc1ccc(C(=O)C23CC4CC(C2)CC(C(=O)c2ccc(OC)cc2)(C4)C3)cc1 — lower, 148 to 150 °C
- O=C1c2cccc(NC(=S)Nc3cnccn3)c2C2CCCCN12 (stereo not drawn) — lower, 204 °C
- COCOc1cc(CO)ccc1OCc1nc(-c2ccco2)oc1C — lower, 92 to 93 °C
- CCC1N=C(C(N)=O)ON1S(=O)(=O)c1ccccc1Cl (stereo not drawn) — lower, 142 °C
- CC1CN(c2cc3c(cc2F)c(=O)c(C(=O)O)cn3CCF)CCN1 (stereo not drawn) — lower, 226 to 227 °C
- O=C(O)C1CSC(c2ccccc2F)N1 (mixture of isomers) — lower, 147 °C
- O=C(O)CC1CCc2c(n(Cc3ccccc3)c3ccccc23)S1 (stereo not drawn) — lower, 164 to 167 °C
- CNC(=O)C1(N2C(=O)c3cccc(NC(C)=O)c3C2=O)CCCCC1 — lower, 205 to 208 °C
- COc1ccc(C(=O)C2CCCCC2)c(Cl)c1Cl — lower, 97 to 98 °C
- CS(=O)(=O)Nc1cccc(-c2ccc(S(=O)(=O)n3ccc(C=CC(=O)NO)c3)cc2)c1 — lower, 137 to 148 °C
- COc1cc(Br)c(OC)c(CO)c1 — lower, 59 to 60 °C
- CS(=O)(=O)c1cc(CCC(=O)O)nc(-c2nc(=O)c3ccc(F)cc3s2)c1 — lower, 236 °C
- C=CCc1ccc(OCCC(C)C)c2c(=O)cc(C(=O)O)oc12 — lower, 79 to 80 °C
- Cc1ccncc1-n1nc(C)c(CC(=O)O)c1-c1ccccc1 — lower, 246 °C
- COc1ccc(Cn2cnc3c(-c4ccco4)nc(N(C(C)=O)C(C)=O)nc32)cc1 — lower, 167 to 168 °C
- CCC(O)c1ccc(Cc2c(Cl)cc(N3N=CCNC3=O)cc2Cl)cc1 (stereo not drawn) — lower, 148 to 149 °C
- O=P1(C2CCCCC2)c2ccccc2CN1c1ccccc1 (stereo not drawn) — lower, 167 to 169 °C
- COC(C)c1nc(C(C)(C)O)c(C(=O)O)n1Cc1ccc(-c2ccccc2-c2nnn[nH]2)cc1 (stereo not drawn) — lower, 174 to 185 °C
- Cc1nc2cccnc2nc1S(=O)Cc1ccccn1 (stereo not drawn) — lower, 120 to 125 °C
- COC(=O)CCCC(Cl)C1SCC2NC(=O)N(Cc3ccccc3)C21 (stereo not drawn) — lower, 141 to 142 °C
- N#Cc1cc2c(cc1O)OCC21C(=O)N(Cc2ccccc2C(F)(F)F)c2ccccc21 (stereo not drawn) — lower, 122 to 124 °C
- CCOC(=O)c1c(O)ccc(Cc2c[nH]cn2)c1C — lower, 42 to 45 °C
- N#Cc1cnc2c(oc3ccccc32)c1Cl — lower, 229 to 231 °C
- OC(CSCc1ccc(Cl)cc1)C12CC3CC(CC(C3)C1)C2 (stereo not drawn) — lower, 74 to 79 °C
- NS(=O)(=O)c1ccccc1S — lower, 113 to 140 °C
- NC(=O)c1cccc(Cn2ccc(OCc3ccc(F)cc3F)c(Cl)c2=O)c1F — lower, 252 to 254 °C
- O=NSC1(C2OCCO2)CCCCC1 — lower, 37 to 39 °C
- c1ccc(CN2CCC(NCc3ccc(OCc4ccnc5ccccc45)cc3)CC2)cc1 — lower, 72 to 75 °C
- O=c1[nH]c2cccnc2n1CCCN1CCC(C(O)(c2ccc(F)cc2)c2ccccn2)CC1 (stereo not drawn) — lower, 140 to 144 °C
- Cc1nnc(-c2ccccc2F)n2nc(OCc3ncnn3C)c(-c3ccoc3)c12 — lower, 150 to 153 °C
- COc1cc(S(C)(=O)=O)ccc1OCc1ccc(C2CCN(C(=O)OC(C)(C)C)CC2)cn1 — lower, 135 to 138 °C
- Cc1nc2cc(NC(=O)c3cc4cc(F)ccc4n3Cc3cccc(F)c3)cnc2s1 — higher, 264 to 265 °C
- O=C1NC(=O)C(c2ccccc2)=C1Nc1ccc(OC(F)(F)F)cc1 — lower, 206 °C
- COc1ccc(N2CCN(c3c(C)c(C)c4c(c3C)CC(C)(C)O4)CC2)cc1C — lower, 137 to 141 °C
